± gives the expanded uncertainty stated by the source. One block for each compound: values may come before it.
Experiments:
[1] = wn = mass fraction of the nth substance listed; settings: 298.15 K, 101.3 kPa, Liquid, Vibrating tube method
[2] = 298.15 K; 101.3 kPa; Liquid; Vibrating tube method

mass density [2]: 679 ± 16 kg/m3
SMILES: CCCCCCC [heptane]

mass density ([1]; w2 = 0.0045): 1183 ± 16 kg/m3
mass density ([1]; w2 = 0.9989): 680 ± 16 kg/m3
SMILES: NCCO.O=CO [2-hydroxyethylammonium formate] + CCCCCCC

mass density ([1]; w2 = 0.0035): 1192.6 ± 16 kg/m3
mass density ([1]; w2 = 0.9955): 699.5 ± 16 kg/m3
mass density ([1]; w2 = 0.9971): 699.7 ± 16 kg/m3
SMILES: NCCO.O=CO [2-hydroxyethylammonium formate] + CCCCCCCC

mass density [2]: 1215 ± 16 kg/m3
SMILES: NCCO.O=CO [2-hydroxyethylammonium formate]

mass density [2]: 668 ± 16 kg/m3
SMILES: CCCCCC [hexane]

Continued, compound first:

SMILES: NCCO.O=CO [2-hydroxyethylammonium formate] + CCCCCC
mass density ([1]; w2 = 0.0028): 1182.7 ± 16 kg/m3
mass density ([1]; w2 = 0.0063): 1194.1 ± 16 kg/m3
mass density ([1]; w2 = 0.997): 655.6 ± 16 kg/m3
mass density ([1]; w2 = 0.9982): 663.6 ± 16 kg/m3

SMILES: CCO [ethanol]
mass density [2]: 785.7 ± 16 kg/m3

SMILES: CO [methanol]
mass density [2]: 786.7 ± 16 kg/m3

SMILES: NCCO.O=CO [2-hydroxyethylammonium formate] + CCCCC
mass density ([1]; w2 = 0.9491): 625.1 ± 16 kg/m3

SMILES: CCCCC [pentane]
mass density [2]: 621.3 ± 16 kg/m3

SMILES: CCCCCCCC [octane]
mass density [2]: 698.7 ± 16 kg/m3

From the NIST ThermoML archive (doi:10.1021/acs.jced.9b00375)
